In test [1] the test system is N. gonorrhoeae. The experiment in a line: MIC against N. gonorrhoeae clinical isolates, normal and CO2 conditions. The test is classed as cell-based. Particulars: Neisseria gonorrhoeae. As to the method: (§1) These tests were performed in normal culture conditions with standard CO2 levels and in CO2 (5% in incubator) conditions.
Test [2] concerns N. gonorrhoeae. Put plainly: Multi-step resistance selection. The test is classed as cell-based. Particulars: after 9 passages. From the text:
Frequency of mutation—multi-step mutation—We investigated N. gonorrhoeae's ability to develop resistance to CAIs using the multi-step resistance selection experiment^58.
N. gonorrhoeae cultures that grew at the highest concentrations of the compound are used as an inoculum for the subsequent culture.

Another test relates to ATCC strain 700825. Put plainly: MICs against ATCC strain 700825. The test is classed as cell-based, N. gonorrhoeae. Particulars: Neisseria gonorrhoeae. The method, then: as §1
The mark [3] stands for this setting: N. gonorrhoeae 178, Non CO2 environment.
Setting [4] is: N. gonorrhoeae 178, normal growth environment (with CO2).
[5] abbreviates: N. gonorrhoeae 181, Non CO2 environment.
The mark [6] stands for this setting: N. gonorrhoeae 181, normal growth environment (with CO2).
Setting [7] is: N. gonorrhoeae 194, Non CO2 environment.
The mark [8] stands for this setting: N. gonorrhoeae 194, normal growth environment (with CO2).

Molecules are shown by their SMILES. In brackets after ≈: the same amount, converted by molar mass.

Consider `CC(C)(C)C(=O)Nc1nnc(S(N)(=O)=O)s1` [CAI 0010], for which the MIC – broadly, the least concentration at which growth counts as inhibited – against N. gonorrhoeae [1] (setting [3]) was 32 µg/mL (≈ 121 µM); against N. gonorrhoeae [1] (setting [4]) it was 32 µg/mL (≈ 121 µM); against N. gonorrhoeae [1] (setting [5]) it was 32 µg/mL (≈ 121 µM); in the test with N. gonorrhoeae [1] (setting [6]), greater than 64 µg/mL; against N. gonorrhoeae [1] (setting [7]), 32 µg/mL (≈ 121 µM); in the test on N. gonorrhoeae [1] (setting [8]), 64 µg/mL (≈ 242 µM).

Regarding `CN1CCN(CC(=O)Nc2nnc(S(N)(=O)=O)s2)CC1` [CAI 0036], the minimum inhibitory concentration (MIC) is 64 µg/mL (≈ 200 µM) in the test on N. gonorrhoeae [1] (setting [3]); greater than 64 µg/mL with N. gonorrhoeae [1] (setting [4]); greater than 64 µg/mL in the test with N. gonorrhoeae [1] (setting [5]); greater than 64 µg/mL against N. gonorrhoeae [1] (setting [6]); greater than 64 µg/mL in the test with N. gonorrhoeae [1] (setting [7]); greater than 64 µg/mL in the test on N. gonorrhoeae [1] (setting [8]).

Turning to `O=C(O)c1cn(C2CC2)c2cc(N3CCNCC3)c(F)cc2c1=O` [Ciprofloxacin], the “increase in MIC” value in the test on N. gonorrhoeae [2] is 300 fold.

With `CCN[C@H]1CN(CCCOC)S(=O)(=O)c2sc(S(N)(=O)=O)cc21` [Brinzolamide], the MIC in the test with N. gonorrhoeae [1] (setting [3]), in the test with N. gonorrhoeae [1] (setting [4]), in the test on N. gonorrhoeae [1] (setting [5]), in the test on N. gonorrhoeae [1] (setting [6]), with N. gonorrhoeae [1] (setting [7]) and with N. gonorrhoeae [1] (setting [8]) was greater than 64 µg/mL throughout.

With `CC(C)C(=O)Nc1nnc(S(N)(=O)=O)s1` [CAI 0011], the MIC is 16 µg/mL (≈ 63.9 µM) in the test on N. gonorrhoeae [1] (setting [3]); 32 µg/mL (≈ 128 µM) against N. gonorrhoeae [1] (setting [4]); 16 µg/mL (≈ 63.9 µM) with N. gonorrhoeae [1] (setting [5]); greater than 64 µg/mL in the test with N. gonorrhoeae [1] (setting [6]); 8 µg/mL (≈ 32 µM) in the test on N. gonorrhoeae [1] (setting [7]); 64 µg/mL (≈ 256 µM) in the test on N. gonorrhoeae [1] (setting [8]).

As to `NS(=O)(=O)c1nnc(NC(=O)CC2CCCCC2)s1` [CAI 0029], the minimal inhibitory concentration (MIC) with N. gonorrhoeae [1] (setting [3]) was 1 µg/mL (≈ 3.29 µM); in the test on N. gonorrhoeae [1] (setting [4]), 32 µg/mL (≈ 105 µM); in the test with N. gonorrhoeae [1] (setting [5]) it was 0.5 µg/mL (≈ 1.64 µM); against N. gonorrhoeae [1] (setting [6]), greater than 64 µg/mL; against N. gonorrhoeae [1] (setting [7]), 2 µg/mL (≈ 6.57 µM); against N. gonorrhoeae [1] (setting [8]) it was greater than 64 µg/mL.

As to `NS(=O)(=O)c1nnc(NC(=O)C2CCCC2)s1` [CAI 0023], the minimal inhibitory concentration (MIC) against N. gonorrhoeae [1] (setting [3]) was 8 µg/mL (≈ 28.9 µM); in the test on N. gonorrhoeae [1] (setting [4]) it was 32 µg/mL (≈ 116 µM); against N. gonorrhoeae [1] (setting [5]) it was 8 µg/mL (≈ 28.9 µM); with N. gonorrhoeae [1] (setting [6]) it was 64 µg/mL (≈ 232 µM); against N. gonorrhoeae [1] (setting [7]) it was 8 µg/mL (≈ 28.9 µM); against N. gonorrhoeae [1] (setting [8]), 64 µg/mL (≈ 232 µM).

On to `Nc1nnc(S(N)(=O)=O)s1` [CAI 0034], for which the MIC with N. gonorrhoeae [1] (setting [3]) is 1 µg/mL (≈ 5.55 µM); against N. gonorrhoeae [1] (setting [4]) it was greater than 64 µg/mL; in the test on N. gonorrhoeae [1] (setting [5]), 4 µg/mL (≈ 22.2 µM); in the test with N. gonorrhoeae [1] (setting [6]), greater than 64 µg/mL; in the test with N. gonorrhoeae [1] (setting [7]), 2 µg/mL (≈ 11.1 µM); in the test on N. gonorrhoeae [1] (setting [8]), greater than 64 µg/mL.

Consider `CC(=O)Nc1ccc(S(N)(=O)=O)cc1` [CAI 0030], for which the MIC with N. gonorrhoeae [1] (setting [3]) was 8 µg/mL (≈ 37.3 µM); in the test on N. gonorrhoeae [1] (setting [4]), greater than 64 µg/mL; with N. gonorrhoeae [1] (setting [5]), 32 µg/mL (≈ 149 µM); in the test with N. gonorrhoeae [1] (setting [6]), greater than 64 µg/mL; in the test with N. gonorrhoeae [1] (setting [7]) it was 16 µg/mL (≈ 74.7 µM); against N. gonorrhoeae [1] (setting [8]), greater than 64 µg/mL.

On to `CCNc1nnc(S(N)(=O)=O)s1` [CAI 0032], for which the MIC is 64 µg/mL (≈ 307 µM) against N. gonorrhoeae [1] (setting [3]); greater than 64 µg/mL in the test on N. gonorrhoeae [1] (setting [4]); greater than 64 µg/mL in the test with N. gonorrhoeae [1] (setting [5]); greater than 64 µg/mL with N. gonorrhoeae [1] (setting [6]); greater than 64 µg/mL in the test on N. gonorrhoeae [1] (setting [7]); greater than 64 µg/mL in the test with N. gonorrhoeae [1] (setting [8]).

In the case of `NS(=O)(=O)c1nnc(NC(=O)CN2CCOCC2)s1` [CAI 0031], the MIC against N. gonorrhoeae [1] (setting [3]) was 32 µg/mL (≈ 104 µM); in the test with N. gonorrhoeae [1] (setting [4]), 64 µg/mL (≈ 208 µM); in the test with N. gonorrhoeae [1] (setting [5]), greater than 64 µg/mL; in the test on N. gonorrhoeae [1] (setting [6]), greater than 64 µg/mL; against N. gonorrhoeae [1] (setting [7]) it was 64 µg/mL (≈ 208 µM); in the test on N. gonorrhoeae [1] (setting [8]) it was greater than 64 µg/mL. The MIC came to 128 µg/mL (≈ 416 µM) against ATCC strain 700825 (ATCC700825, In CO2) and 32 µg/mL (≈ 104 µM) with ATCC strain 700825 (ATCC700825, In air).

In the case of `NS(=O)(=O)c1nnc(NC(=O)c2ccccc2)s1` [CAI 0012], the MIC in the test with N. gonorrhoeae [1] (setting [3]) was 2 µg/mL (≈ 7.03 µM); in the test with N. gonorrhoeae [1] (setting [4]) it was 16 µg/mL (≈ 56.3 µM); with N. gonorrhoeae [1] (setting [5]), 4 µg/mL (≈ 14.1 µM); against N. gonorrhoeae [1] (setting [6]), greater than 64 µg/mL; against N. gonorrhoeae [1] (setting [7]), 2 µg/mL (≈ 7.03 µM); with N. gonorrhoeae [1] (setting [8]), 64 µg/mL (≈ 225 µM).

`CC(C)(C)CC(=O)Nc1nnc(S(N)(=O)=O)s1` [CAI 0028]: the minimum inhibitory concentration (MIC) came to 8 µg/mL (≈ 28.7 µM) with N. gonorrhoeae [1] (setting [3]); 32 µg/mL (≈ 115 µM) in the test on N. gonorrhoeae [1] (setting [4]); 16 µg/mL (≈ 57.5 µM) against N. gonorrhoeae [1] (setting [5]); 64 µg/mL (≈ 230 µM) against N. gonorrhoeae [1] (setting [6]); 32 µg/mL (≈ 115 µM) in the test on N. gonorrhoeae [1] (setting [7]); 64 µg/mL (≈ 230 µM) in the test on N. gonorrhoeae [1] (setting [8]).

Consider `CCC(=O)Nc1nnc(S(N)(=O)=O)s1` [CAI 009], for which the minimum inhibitory concentration (MIC) with N. gonorrhoeae [1] (setting [3]) was 8 µg/mL (≈ 33.9 µM); against N. gonorrhoeae [1] (setting [4]), 16 µg/mL (≈ 67.7 µM); in the test on N. gonorrhoeae [1] (setting [5]), 8 µg/mL (≈ 33.9 µM); in the test with N. gonorrhoeae [1] (setting [6]) it was greater than 64 µg/mL; against N. gonorrhoeae [1] (setting [7]) it was 16 µg/mL (≈ 67.7 µM); in the test on N. gonorrhoeae [1] (setting [8]) it was 64 µg/mL (≈ 271 µM).

As to `CCCCCCC(=O)Nc1nnc(S(N)(=O)=O)s1` [CAI 0027], the MIC against N. gonorrhoeae [1] (setting [3]) was determined as 2 µg/mL (≈ 6.84 µM); in the test on N. gonorrhoeae [1] (setting [4]) it was 32 µg/mL (≈ 109 µM); against N. gonorrhoeae [1] (setting [5]), 2 µg/mL (≈ 6.84 µM); with N. gonorrhoeae [1] (setting [6]), 64 µg/mL (≈ 219 µM); against N. gonorrhoeae [1] (setting [7]), 1 µg/mL (≈ 3.42 µM); against N. gonorrhoeae [1] (setting [8]), 64 µg/mL (≈ 219 µM).

For `NS(=O)(=O)c1nnc(NC(=O)CN2CCCCC2)s1` [CAI 0035], the MIC against N. gonorrhoeae [1] (setting [3]) was 64 µg/mL (≈ 210 µM); in the test on N. gonorrhoeae [1] (setting [4]), greater than 64 µg/mL; against N. gonorrhoeae [1] (setting [5]), greater than 64 µg/mL; with N. gonorrhoeae [1] (setting [6]) it was greater than 64 µg/mL; with N. gonorrhoeae [1] (setting [7]) it was 64 µg/mL (≈ 210 µM); against N. gonorrhoeae [1] (setting [8]), greater than 64 µg/mL.

For the origin of these results see patent US20220213047A1, “CARBONIC ANHYDRASE INHIBITORS FOR TREATMENT OF NEISSERIA GONORRHOEAE INFECTION” (Purdue Research Foundation, priority 2021, published 2022).
